Counter-ions that a name gives are not always drawn.

What is called fold induction is the ratio of treated to control signal. High values mean a large rise in signal, low ones little rise in signal.

The test concerns 3D INSIGHT Islet Microtissues (primary human pancreatic islet cells). Kind of test: Glucagon secretion assay (glucagon ELISA) in 3D INSIGHT Islet Microtissues. The format is cell-based. The conditions noted are these: for dose dependency of the increase in glucagon secretion: Example 2, donor AFCS437, 1, 10 and 100 μM; for fold induction at 10 µM / fold induction at 100 µM: Homo sapiens, Pancreatic islet; for fold induction at 10 µM: donor AFBM114, 10 μM; for fold induction at 100 µM: donor AFBM114, 100 μM. The text has this:
This and the following example make use of 3D INSIGHT® Islet Microtissues (InSphero AG, Schlieren, Switzerland), an in vitro model system for diabetes research produced by optimized dissociation and controlled scaffold-free reaggregation of primary human pancreatic islet cells. This allows precise control over the newly forming islet microtissue size and eliminates contaminating exocrine material while ensuring homogeneous and native-like distribution of endocrine cells within each tissue. The resulting islet tissues display long-term (>28 days) and robust function, enabling high throughput and longitudinal study of pancreatic islet function, regulation, and preservation.
1. The diabetes model system 3D INSIGHT® Islet Microtissues was obtained from a donor. 2. […] 3. Six replicates for each sample were tested. 4. L-arginine was used as a positive control. 5. DMSO was used a solvent for BF2649 hydrochloride and cyproheptadine hydrochloride; ddH2O was used as a solvent for L-arginine. […] 6. Glucagon secretion was quantified with a glucagon ELISA (Mercodia, Uppsala, Sweden). 7. Total ATP content was also measured during the assay.
Referring to FIG. 5, a timeline (500) of the assay is shown. Day 0 (510) involved producing the 3D INSIGHT® Human Islet Microtissues. On Day 5 (520), the samples were moved to a receiving plate. On Day 7 (530), the islet size, viability, and function were verified by quality control. On the final day of the test (540), the glucagon secretion assay was performed with ELISA, and ATP content was measured.
Before the assay, conditioned media was removed, islet microtissue washed twice with Kreb's Ringer HEPES buffer (KRHB) containing 5.5 mM glucose and were equilibrated in KRHB containing 5-5 mM glucose for 1.5 hours. Equilibration buffer was removed, islet microtissues were washed twice in KRHB with 5-5 mM glucose. Glucagon secretion was performed in KRHB with either 8 mM or 1 mM glucose for 2 hours in the presence of the test compounds. Conditioned KRHB were collected for analysis of glucagon content with an ELISA (Mercodia, Uppsala, Sweden).
A second donor (UNOS ID #AFCS437) was used as well.
Before the assay, conditioned media was removed, islet microtissue washed twice with Kreb's Ringer HEPES buffer (KRHB) containing 5-5 mM glucose and were equilibrated in KRHB containing 5-5 mM glucose for 1.5 hours. Equilibration buffer was removed, islet microtissues were washed twice in KRHB with 5-5 mM glucose. Glucagon secretion was performed in KRHB with either 8 mM or 1 mM glucose for 2 hours in the presence of the test compounds. Conditioned KRHB were collected for analysis of glucagon content with an ELISA (Mercodia, Uppsala, Sweden).

[1] abbreviates: Example 1, donor AFBM114, 2 hours.
Where [2] appears, read: Example 1, donor AFBM114, 2 hours, compared to vehicle at 1 mM glucose (FIG. 6).

For the compound `Clc1ccc(CCCOCCCN2CCCCC2)cc1` [BF2649 hydrochloride, 1-{3-[3-(4-chlorophenyl)propoxy]propyl}piperidine], the “dose dependency of the increase in glucagon secretion” value is “significant dose dependency”. Further, the “dose dependence of the increase in glucagon secretion” value (Example 1, donor AFBM114, 1, 10 and 100 μM, 1 mM glucose) was “dose dependent”. For the same compound, under setting [1], the “increase in glucagon secretion, 1 mM glucose versus 8 mM glucose” value (from here on “increase … 1 mM glucose versus 8 mM glucose”) is “higher at 1 mM glucose than at 8 mM glucose”. Further, the “glucagon secretion (effect)” value under setting [2] is “increased glucagon secretion”. The “glucagon secretion (effect)” value (Example 2, donor AFBM114, 10 μM, 8 mM glucose (FIG. 8)) is listed as “increased glucagon secretion”. Also, where the note is “Example 2, donor AFBM114, 100 μM, 8 mM glucose (FIG. 8)”, the “glucagon secretion (effect)” value is given as “increased glucagon secretion”. In addition, the “increase in glucagon secretion compared with 5 mM arginine” value (Example 2, donor AFCS437, 100 μM) was “similarly to 5 mM arginine”. Besides, under “1 mM glucose (Example 1)”, the fold induction at 10 µM is 1.8 and the fold induction at 100 µM is 7.5. Further, under “8 mM glucose (Example 2)”, the fold induction at 10 µM came to 1.8 and the fold induction at 100 µM turned out to be 2. Also, the “increase in glucagon secretion compared with 5 mM arginine” value (previously tested donor (AFBM114), 100 μM) is “similarly to 5 mM arginine”.

With `O=C(O)COCCN1CCN(C(c2ccccc2)c2ccc(Cl)cc2)CC1` (stereo not drawn) [Cetirizine, cetirizine dihydrochloride], the “dose dependency of the increase in glucagon secretion” value is “much less pronounced”. Further, the “glucagon secretion (effect)” value (Example 2, donor AFCS437, all tested concentrations, compared to vehicle at 1 mM glucose (FIG. 10)) is recorded as “only slightly increased glucagon secretion”.

For the compound `N=C(N)NCCC[C@H](N)C(=O)O` [L-arginine], the “increase … 1 mM glucose versus 8 mM glucose” value under setting [1] is “higher at 1 mM glucose than at 8 mM glucose”. Moreover, the “glucagon secretion (effect)” value under setting [2] is on record as “increased glucagon secretion”.

On to `CN1CCC(=C2c3ccccc3C=Cc3ccccc32)CC1` [cyproheptadine hydrochloride], for which the “increase … 1 mM glucose versus 8 mM glucose” value under setting [1] is listed as “higher at 1 mM glucose than at 8 mM glucose”. Besides, under setting [2], the “glucagon secretion (effect)” value is recorded as “increased glucagon secretion”.

The record behind these values is patent publication US20200405728A1, “METHODS OF PREVENTING AND TREATING HYPOGLYCEMIA IN TYPE 1 AND TYPE 2 DIABETES PATIENTS” (Ferox Therapeutics LLC, priority 2018, published 2020).
